Measured values: ChEMBL document CHEMBL1153384, “Synthesis, antimalarial activity, and preclinical pharmacology of a novel series of 4'-fluoro and 4'-chloro analogues of amodiaquine. Identification of a suitable "back-up" compound for N-tert-butyl isoquine” (J Med Chem, 2009)

Assays:
Plasmodium falciparum [1] = test: Antimalarial activity against chloroquine-sensitive Plasmodium falciparum 3D7; format: functional, organism-based
Plasmodium falciparum [2] = test: Antimalarial activity against chloroquine-resistant Plasmodium falciparum TM6; format: functional, organism-based
Plasmodium falciparum [3] = test: Antimalarial activity against chloroquine-sensitive Plasmodium falciparum HB3; format: functional, organism-based
Heme [4] = test: Binding affinity to heme assessed as binding constant for stepwise binding of 2 equivalent of drug to 1 molecule of heme in presence of 40% DMSO by UV-visible spectroscopy
Heme [5] = test: Binding affinity to heme assessed as binding constant for stepwise binding of 2 molecules of heme to 1 equivalent of drug in presence of 40% DMSO by UV-visible spectroscopy
Heme [6] = test system: Heme
Heme [7] = test system: Heme; remark: listed apart in the source
[8] = target: β-hematin formation (no protein target); test: Inhibition of beta-hematin formation as molar equivalent relative to hemin causing blockade in BHIA
[9] = Biodistribution in cannulated Wistar rat bile assessed as [3H]labeled drug level at 54 umol/kg, iv after 5 hrs; format: ADME, organism-based; conditions: in vivo
Liver [10] = test: Biodistribution in cannulated Wistar rat liver assessed as [3H]labeled drug level at 54 umol/kg, iv after 5 hrs; format: ADME, organism-based; conditions: in vivo
[11] = Drug metabolism in cannulated Wistar rat assessed as biliary excretion of [3H]labeled drug level at 54 umol/kg, iv after 5 hrs; format: ADME, organism-based, Bile; conditions: in vivo
Kidney [12] = test: Biodistribution in cannulated Wistar rat kidney assessed as [3H]labeled drug level at 54 umol/kg, iv after 5 hrs; format: ADME, organism-based; conditions: in vivo
[13] = Partition coefficient, log P of the compound; format: physicochemical; conditions: octanol/water
Rattus norvegicus [14] = test: Drug elimination in Wistar rat assessed as [3H]labeled drug level at 54 umol/kg, iv after 24 hrs; format: ADME, organism-based; conditions: in vivo
Kidney [15] = test: Biodistribution in Wistar rat kidney assessed as [3H]labeled drug level at 54 umol/kg, iv after 24 hrs; format: ADME, organism-based; conditions: in vivo
Liver [16] = test: Biodistribution in Wistar rat liver assessed as [3H]labeled drug level at 54 umol/kg, iv after 24 hrs; format: ADME, organism-based; conditions: in vivo
Lung = test: Biodistribution in Wistar rat lung assessed as [3H]labeled drug level at 54 umol/kg, iv after 24 hrs; format: ADME, organism-based; conditions: in vivo
Rattus norvegicus [17] = test: Metabolic stability in Wistar rat assessed as [3-(tert-Butylamino-methyl)-4-chloro-phenyl]-(7-chloro-1-oxy-quinolin-4-yl)-amine level at 54 umol/kg, iv administered as [3H]labeled drug after 5 hrs; format: ADME, organism-based; conditions: in vivo
Rattus norvegicus [18] = test: Metabolic stability in Wistar rat assessed as 2-[2-Chloro-5-(7-chloro-quinolin-4-ylamino)-benzylamino]-2-methyl-propionic acid level at 54 umol/kg, iv administered as [3H]labeled drug after 5 hrs; format: ADME, organism-based; conditions: in vivo
Rattus norvegicus [19] = test: Metabolic stability in Wistar rat assessed as 2-Chloro-5-(7-chloro-quinolin-4-ylamino)-benzoic acid level at 54 umol/kg, iv administered as [3H]labeled drug after 5 hrs; format: ADME, organism-based; conditions: in vivo
[20] = Toxicity against Wistar rat hepatocytes after 6 hrs by trypan blue exclusion method; format: cell-based, Hepatocyte; conditions: read-out: TC50
[21] = Therapeutic index, ratio of IC50 for Wistar rat hepatocytes to IC50 for Plasmodium falciparum HB3; format: cell-based, Hepatocyte
[22] = Distribution coefficient, log D at pH 7.4; conditions: octanol/water
Plasmodium berghei = test: Antimalarial activity as reduced parasitaemia against Plasmodium berghei ANKA infected CD1 mice (Mus musculus) perorally dosed daily over 4 days; format: functional; conditions: po, 96 h

Compound: CCCCN(CCCC)Cc1cc(Nc2ccnc3cc(Cl)ccc23)ccc1F
- IC50 (Plasmodium falciparum [1]): 0.0952 µM

Compound: CCCCN(CCCC)Cc1cc(Nc2ccnc3cc(Cl)ccc23)ccc1Cl
- IC50 (Plasmodium falciparum [1]): 0.345 µM
- IC50 (Plasmodium falciparum [2]): 0.0963 µM
- IC50 (Plasmodium falciparum [3]): 0.144 µM

Compound: Clc1ccc2c(Nc3ccc(Cl)c(CN4CCCCC4)c3)ccnc2c1
- IC50 (Plasmodium falciparum [1]): 0.0257 µM
- IC50 (Plasmodium falciparum [2]): 0.0094 µM
- IC50 (Plasmodium falciparum [3]): 0.0123 µM

Compound: CCCN(CCC)Cc1cc(Nc2ccnc3cc(Cl)ccc23)ccc1Cl
- IC50 (Plasmodium falciparum [1]): 0.277 µM

Compound: c1ccncc1
- log Ks (Heme [4]): 2.5
- log Ks (Heme [5]): 0.18
- log Ks (Heme [6]): 2.24
- log Ks (Heme [7]): 2.54

Compound: Fc1ccc(Nc2ccnc3cc(Cl)ccc23)cc1Cn1ccnc1
- IC50 (Plasmodium falciparum [1]): 0.0272 µM
- IC50 [8]: 1.78 molar ratio

Compound: CC(C)(C)NCc1cc(Nc2ccnc3cc(Cl)ccc23)ccc1Cl
- IC50 (Plasmodium falciparum [1]): 0.0078 µM
- IC50 (Plasmodium falciparum [2]): 0.0045 µM
- IC50 (Plasmodium falciparum [3]): 0.0081 µM
- Activity [9]: 14.9%
- Drug uptake (Liver [10]): 12.41%
- Activity [11]: 14.88%
- Drug uptake (Kidney [12]): 5.43 %ID
- logP [13]: 5.59
- Activity (Rattus norvegicus [14]): 61%
- Drug uptake (Kidney [15]): 0.31 %ID
- Drug uptake (Liver [16]): 1.87 %ID
- Drug uptake (Lung): 0.25 %ID
- Activity (Rattus norvegicus [17]): 4.52%
- Activity (Rattus norvegicus [18]): 60.76%
- Activity (Rattus norvegicus [19]): 11.39%
- CC50 at 6 h [20]: 120 µM
- selectivity ratio [21]: 11900
- logD [22]: 3
- ED50 (Plasmodium berghei): 13.4 mg/kg
- ED90 (Plasmodium berghei): 27.3 mg/kg
- IC50 [8]: 1.66 molar ratio
